Key:
[1] = tested on: Wnt activity (Wnt-responsive Sp5 promoter-luciferase reporter in SW480 cells); test: Wnt activity screening assay: Sp5-Luc reporter gene in SW480 colon carcinoma cells; format: cell-based; conditions: Homo sapiens
From the text: The screening assay for Wnt activity is described as follows. Reporter cell lines can be generated by stably transducing cancer cell lines (e.g., colon cancer) or primary cells (e.g., IEC-6 intestinal cells) with a lentiviral construct that includes a Wnt-responsive promoter driving expression of the firefly luciferase gene.
SW480 colon carcinoma cells were transduced with a lentiviral vector expressing luciferase with a human Sp5 promoter consisting of a sequence of eight TCF/LEF binding sites. SW480 cells stably expressing the Sp5-Luc reporter gene and a hygromycin resistance gene were selected by treatment with 150 μg/ml of hygromycin for 7 days. These stably transduced SW480 cells were expanded in cell culture and used for all further screening activities. For Sp5-Luc reporter gene assays, the cells were plated at 10,000 cells/well in 96-well plates with growth medium containing 10% fetal calf serum and incubated overnight at 37° C. and 5% CO2. Each compound was dissolved in DMSO as a 10 mM stock in standard j-vials and used to prepare compound source plates in dose-response format with 3-fold serial dilutions and a 10 mM top concentration. Compound transfer from serially diluted source plates to assay plates containing the cells was accomplished using a pintool (Multimek 96, Beckman equipped with V&P Scientific FP1S50H pins) based liquid handling protocol. This protocol used a slotted pin to transfer 50 nl of compound from a source plate well to an assay plate well containing 50 μl of cells in growth medium. […] Control wells received 50 nl of DMSO treatment for normalization and calculating IC50 values. The treated cells were incubated at 37° C. and 5% CO2 for an additional forty-two hours. Following incubation, the growth medium was removed and 50 μl of BrightGlo luminescence reagent (Promega) was added to each well of the 96-well assay plates. The plates were placed on an orbital shaker for 5 min and then luminescence was quantified on the Victor3 (Perkin Elmer) plate reader. Readings were normalized to DMSO only treated cells, and normalized activities were utilized for IC50 calculations using the dose-response log (inhibitor) vs. response-variable slope (four parameters) nonlinear regression feature available in GraphPad Prism 5.0 or 6.0.

[2] = tested on: primary human fibroblasts derived from IPF patients (LL29 cells); test: Inhibition of fibrotic process: αSMA staining in TGF-β1-treated primary human fibroblasts from IPF patients (LL29 cells); format: cell-based; conditions: Fibroblast, 96 h, LL29 cells treated with TGF-β1 (20 ng/mL), 4 days, 11-point dose-response from 10 μM to 1.87 nM, read-out: Inhibition of fibrosis EC50
From the text: The above synthesized compounds were screened using primary human fibroblasts (derived from IPF patients) treated with TGF-β1 to determine their ability to inhibit the fibrotic process.
Primary human fibroblasts derived from IPF patients (LL29 cells) [^1Xiaoqiu Liu, et. al., “Fibrotic Lung Fibroblasts Show Blunted Inhibition by cAMP Due to Deficient cAMP Response Element-Binding Protein Phosphorylation”, Journal of Pharmacology and Experimental Therapeutics (2005), 315(2), 678-687; ^2Watts, K. L., et. al., “RhoA signaling modulates cyclin D1 expression in human lung fibroblasts; implications for idiopathic pulmonary fibrosis”, Respiratory Research (2006), 7(1), 88] were obtained from American Type Culture Collection (ATCC) and expanded in F12 medium supplemented with 15% Fetal Bovine Serum and Penicillin/Streptomycin.
Each compound was dissolved in DMSO as a 10 mM stock and used to prepare compound source plates. Serial dilution (1:2, 11-point dose-response curves from 10 μM to 1.87 nM) and compound transfer was performed using the ECHO 550 (Labcyte, Sunnyvale, Calif.) into 384-well clear bottom assay plates (Greiner Bio-One) with appropriate DMSO backfill for a final DMSO concentration of 0.1%. LL29 cells were plated at 1,500 cells/well in 80 μl/well F12 medium supplemented with 1% Fetal Bovine Serum. One hour after addition of the cells, TGF-β1 (Peprotech; 20 ng/mL) was added to the plates to induce fibrosis (ref. 1 and 2 above). Wells treated with TGF-β1 and containing DMSO were used as controls. Cells were incubated at 37° C. and 5% CO2 for 4 days. Following incubation for 4 days, SYTOX green nucleic acid stain (Life Technologies [Thermo Fisher Scientific]) was added to the wells at a final concentration of 1 uM and incubated at room temperature for 30 min. Cells were then fixed using 4% formaldehyde (Electron Microscopy Sciences), washed 3 times with PBS followed by blocking and permeabilization using 3% Bovine Serum Albumin (BSA; Sigma) and 0.3% Triton X-100 (Sigma) in PBS. Cells were then stained with antibody specific to α-smooth muscle actin (αSMA; Abcam) (ref. 1 and 2 above) in 3% Bovine Serum Albumin (BSA; Sigma) and 0.3% Triton X-100 (Sigma) in PBS, and incubated overnight at 4° C. Cells were then washed 3 times with PBS, followed by incubation with Alexa Flor-647 conjugated secondary antibody (Life Technologies [Thermo Fisher Scientific]) and DAPI at room temperature for 1 hour. Cells were then washed 3 times with PBS and plates were sealed for imaging. αSMA staining was imaged by excitation at 630 nm and emission at 665 nm and quantified using the Compartmental Analysis program on the CellInsight CX5 (Thermo Scientific). Dead or apoptotic cells were excluded from analysis based on positive SYTOX green staining. % of total cells positive for αSMA were counted in each well and normalized to the average of 11 wells treated with TGF-β1 on the same plate using Dotmatics' Studies Software. The normalized averages (fold change over untreated) of 3 replicate wells for each compound concentration were used to create dose-responses curves and EC50 values were calculated using non-linear regression curve fit in the Dotmatics' Studies Software. The EC50 values are reported.

Question: `CN(C)c1cncc(-c2cc3c(-c4nc5c(-c6cccc(F)c6)cncc5[nH]4)n[nH]c3cn2)c1` [Compound 7, 5-(3-(7-(3-Fluorophenyl)-3H-imidazo[4,5-c]pyridin-2-yl)-1H-pyrazolo[3,4-c]pyridin-5-yl)-N,N-dimethylpyridin-3-amine] was tested. Which IC50 [1] did it give?
Answer: The IC50 was 71.8 nM.

Question: What about the EC50 [2] of the same molecule?
Answer: Its EC50 is ≤ 9 nM.

Question: With `CC(C)(C)C(=O)Nc1cncc(-c2cc3c(-c4nc5c(-c6cccc(F)c6)cncc5[nH]4)n[nH]c3cn2)c1` [Compound 8, N-(5-(3-(7-(3-Fluorophenyl)-3H-imidazo[4,5-c]pyridin-2-yl)-1H-pyrazolo[3,4-c]pyridin-5-yl)pyridin-3-yl)pivalamide] as the molecule, how does the IC50 [1] read?
Answer: The IC50 was 41.1 nM.

Question: What about the EC50 [2] of the same molecule?
Answer: The EC50 was 47 nM.

Question: With `CN(C)Cc1cncc(-c2cc3c(-c4nc5c(-c6cccc(F)c6)cncc5[nH]4)n[nH]c3cn2)c1` [Compound 13, 1-(5-(3-(7-(3-Fluorophenyl)-3H-imidazo[4,5-c]pyridin-2-yl)-1H-pyrazolo[3,4-c]pyridin-5-yl)pyridin-3-yl)-N,N-dimethylmethanamine] as the molecule, how does the IC50 [1] read?
Answer: Its IC50 is 80.1 nM.

Question: What about the EC50 [2] of the same molecule?
Answer: The EC50 was ≤ 9 nM.

Question: With `CCCCC(=O)Nc1cncc(-c2cc3c(-c4nc5c(-c6cccc(F)c6)cncc5[nH]4)n[nH]c3cn2)c1` [Compound 18, N-(5-(3-(7-(3-Fluorophenyl)-3H-imidazo[4,5-c]pyridin-2-yl)-1H-pyrazolo[3,4-c]pyridin-5-yl)pyridin-3-yl)pentanamide] as the molecule, how does the IC50 [1] read?
Answer: The IC50 was 29.4 nM.

Question: And the EC50 [2]?
Answer: Its EC50 is 143 nM.

Question: With `Fc1cccc(-c2cncc3[nH]c(-c4n[nH]c5cnc(-c6cncc(CN7CCC(F)(F)C7)c6)cc45)nc23)c1` [Compound 25, 5-(5-((3,3-Difluoropyrrolidin-1-yl)methyl)pyridin-3-yl)-3-(7-(3-fluorophenyl)-3H-imidazo[4,5-c]pyridin-2-yl)-1H-pyrazolo[3,4-c]pyridine] as the molecule, how does the IC50 [1] read?
Answer: Its IC50 is 31.1 nM.

Question: And the EC50 [2]?
Answer: Its EC50 is ≤ 9 nM.

Question: `Fc1ccc(-c2cncc3[nH]c(-c4n[nH]c5cnc(-c6cncc(CN7CCCC7)c6)cc45)nc23)cc1` [Compound 40, 3-(7-(4-Fluorophenyl)-3H-imidazo[4,5-c]pyridin-2-yl)-5-(5-(pyrrolidin-1-ylmethyl)pyridin-3-yl)-1H-pyrazolo[3,4-c]pyridine] was tested. Which IC50 [1] did it give?
Answer: The IC50 was 1060 nM.

Question: What about the EC50 [2] of the same molecule?
Answer: The EC50 was 1770 nM.

Question: What does the source list for `CCCC(=O)Nc1cncc(-c2cc3c(-c4nc5c(-c6ccc(F)cc6)cncc5[nH]4)n[nH]c3cn2)c1` [Compound 43, N-(5-(3-(7-(4-Fluorophenyl)-3H-imidazo[4,5-c]pyridin-2-yl)-1H-pyrazolo[3,4-c]pyridin-5-yl)pyridin-3-yl)butyramide]?
Answer: IC50 [1]: 76.7 nM; EC50 [2]: 76 nM

Question: How did the IC50 [1] turn out when `CCCCC(=O)Nc1cncc(-c2cc3c(-c4nc5c(-c6ccc(F)cc6)cncc5[nH]4)n[nH]c3cn2)c1` [Compound 44, N-(5-(3-(7-(4-Fluorophenyl)-3H-imidazo[4,5-c]pyridin-2-yl)-1H-pyrazolo[3,4-c]pyridin-5-yl)pyridin-3-yl)pentanamide] was run?
Answer: Its IC50 is 164 nM.

Question: What about the EC50 [2] of the same molecule?
Answer: The EC50 was 75 nM.

Question: With `CCCCC(=O)Nc1cncc(-c2cc3c(-c4nc5c(-c6ccoc6)cncc5[nH]4)n[nH]c3cn2)c1` [Compound 278, N-(5-(3-(7-(Furan-3-yl)-3H-imidazo[4,5-c]pyridin-2-yl)-1H-pyrazolo[3,4-c]pyridin-5-yl)pyridin-3-yl)pentanamide] as the molecule, how does the IC50 [1] read?
Answer: The IC50 was 115 nM.

Question: Which IC50 [1] does the source give for `CC(C)CC(=O)Nc1cncc(-c2cc3c(-c4nc5c(-c6cccs6)cncc5[nH]4)n[nH]c3cn2)c1` [Compound 288, 3-Methyl-N-(5-(3-(7-(thiophen-2-yl)-3H-imidazo[4,5-c]pyridin-2-yl)-1H-pyrazolo[3,4-c]pyridin-5-yl)pyridin-3-yl)butanamide] here?
Answer: Its IC50 is 79 nM.

Question: For `Fc1cccc(-c2cncc3[nH]c(-c4n[nH]c5cnc(-c6cn[nH]c6)cc45)nc23)c1` [Compound 887, 3-(7-(3-Fluorophenyl)-3H-imidazo[4,5-c]pyridin-2-yl)-5-(1H-pyrazol-4-yl)-1H-pyrazolo[3,4-c]pyridine], which IC50 [1] is on record?
Answer: The IC50 was 6 nM.

Question: How did the IC50 [1] turn out when `Fc1cccc(-c2cncc3[nH]c(-c4n[nH]c5cnc(-c6cncc(OC7CCCCC7)c6)cc45)nc23)c1` [Compound 891, 5-(5-(Cyclohexyloxy)pyridin-3-yl)-3-(7-(3-fluorophenyl)-3H-imidazo[4,5-c]pyridin-2-yl)-1H-pyrazolo[3,4-c]pyridine] was run?
Answer: Its IC50 is 735 nM.

Question: With `Fc1cccc(-c2cncc3[nH]c(-c4n[nH]c5cnc(-c6cncc(OC7CCNCC7)c6)cc45)nc23)c1` [Compound 892, 3-(7-(3-Fluorophenyl)-3H-imidazo[4,5-c]pyridin-2-yl)-5-(5-(piperidin-4-yloxy)pyridin-3-yl)-1H-pyrazolo[3,4-c]pyridine] as the molecule, how does the IC50 [1] read?
Answer: The IC50 was > 10000 nM.

Question: With `Fc1cccc(-c2cncc3[nH]c(-c4n[nH]c5cnc(-c6cncc(OCCN7CCCC7)c6)cc45)nc23)c1` [Compound 894, 3-(7-(3-Fluorophenyl)-3H-imidazo[4,5-c]pyridin-2-yl)-5-(5-(2-(pyrrolidin-1-yl)ethoxy)pyridin-3-yl)-1H-pyrazolo[3,4-c]pyridine] as the molecule, how does the IC50 [1] read?
Answer: The IC50 was > 10000 nM.

Question: Which IC50 [1] does the source give for `Fc1cccc(-c2cncc3[nH]c(-c4n[nH]c5cnc(-c6cncc(OCc7ccccc7)c6)cc45)nc23)c1` [Compound 898, 5-(5-(Benzyloxy)pyridin-3-yl)-3-(7-(3-fluorophenyl)-3H-imidazo[4,5-c]pyridin-2-yl)-1H-pyrazolo[3,4-c]pyridine] here?
Answer: Its IC50 is 520 nM.

Question: Which IC50 [1] does the source give for `O=C(CC1CCCCC1)Nc1cncc(-c2cc3c(-c4nc5c(-c6cccc(F)c6)cncc5[nH]4)n[nH]c3cn2)c1` [Compound 899, 2-Cyclohexyl-N-(5-(3-(7-(3-fluorophenyl)-3H-imidazo[4,5-c]pyridin-2-yl)-1H-pyrazolo[3,4-c]pyridin-5-yl)pyridin-3-yl)acetamide] here?
Answer: Its IC50 is 1740 nM.

Question: How did the IC50 [1] turn out when `Fc1cccc(-c2cncc3[nH]c(-c4n[nH]c5cnc(-c6cnccn6)cc45)nc23)c1` [Compound 902, 3-(7-(3-Fluorophenyl)-3H-imidazo[4,5-c]pyridin-2-yl)-5-(pyrazin-2-yl)-1H-pyrazolo[3,4-c]pyridine] was run?
Answer: Its IC50 is 50 nM.

Question: How did the IC50 [1] turn out when `CC(C)CC(=O)Nc1cncc(-c2cc3c(-c4nc5c(-c6cc(F)cc(OCCN(C)C)c6)cncc5[nH]4)n[nH]c3cn2)c1` [Compound 1192, N-(5-(3-(7-(3-(2-(Dimethylamino)ethoxy)-5-fluorophenyl)-3H-imidazo[4,5-c]pyridin-2-yl)-1H-pyrazolo[3,4-c]pyridin-5-yl)pyridin-3-yl)-3-methylbutanamide] was run?
Answer: Its IC50 is > 10000 nM.

Question: How did the IC50 [1] turn out when `CC(C)CC(=O)Nc1cncc(-c2cc3c(-c4nc5c(-c6cc(F)cc(OCCN7CCCC7)c6)cncc5[nH]4)n[nH]c3cn2)c1` [Compound 1236, N-(5-(3-(7-(3-Fluoro-5-(2-(pyrrolidin-1-yl)ethoxy)phenyl)-3H-imidazo[4,5-c]pyridin-2-yl)-1H-pyrazolo[3,4-c]pyridin-5-yl)pyridin-3-yl)-3-methylbutanamide] was run?
Answer: The IC50 was > 10000 nM.

From patent publication US10052331B2, “3-(3H-imidazo[4,5-C]pyridin-2-yl)-1H-pyrazolo[3,4-C]pyridine and therapeutic uses thereof” (Samumed, LLC, priority 2014, dated 2018)
